In PMC12723449, “From Pharmacophore to Warhead: NAD^+‐Targeting Triazoles as Mechanism‐Based Sirtuin Inhibitors” (Angewandte Chemie (International Ed. in English), 2025):
pKi: −log10 of the molar value. Blank lines part the entries; values can stand above or below the molecule they belong to.

Experiments:
[1] = tested on: α‐tubulin; parameters: method as in PMID 35441145; conditions: cited from earlier work
[2] = molecular target: T1, SIRT2 (Homo sapiens, UniProt Q8IXJ6); assay: Jump-dilution assay; type: biochemical
T1 construct: For assay experiments, strep-tagged human SIRT1134−747 and SIRT256-356 were expressed and purified as previously; Strep-tag; made in house; host or cells: E. coli BL21 Star (DE3)
T1 sequence (Q8IXJ6 56-356 limits assumed): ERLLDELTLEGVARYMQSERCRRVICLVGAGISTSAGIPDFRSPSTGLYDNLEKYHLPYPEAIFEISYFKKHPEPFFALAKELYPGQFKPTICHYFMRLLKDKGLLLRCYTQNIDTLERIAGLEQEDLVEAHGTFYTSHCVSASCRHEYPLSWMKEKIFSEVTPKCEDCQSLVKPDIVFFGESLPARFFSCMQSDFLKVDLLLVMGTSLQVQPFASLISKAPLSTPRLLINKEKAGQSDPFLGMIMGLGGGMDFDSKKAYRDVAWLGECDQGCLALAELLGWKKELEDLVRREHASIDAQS

[3] = molecular target: T1, SIRT2; assay: Kinetic analysis via continuous enzyme demyristoylation inhibition assay; type: biochemical; conditions: myristoylated substrate, two-step inhibition model; read-out: K I app
Experimental: solution was diluted 100-fold to a total volume of 40 µL with substrate (final concentration of 40 nM), NAD+ (final concentration of 500 µM) and DMSO (final concentration of 5 % (v/v)) and transferred to a black 384-well microplate (Optiplate 384 F, PerkinElmer). For NAD+ preincubation, 0.1 µL of inhibitor solution (40× IC50, […] after jump dilution), 0.1 µL of SIRT2 (400 nM, final concentration of 1 nM after jump dilution) and 0.2 µL of NAD+ ([…] concentration of 500 µM after jump dilution) were preincubated for 30 min. […] The change in fluorescence was monitored with a microplate reader (λEx = 485 nm, λEm = 530-10 nm, BMG POLARstar Optima, BMG Labtech, Germany) every 30 s for 20 min. […] Reaction rates were obtained from the slope of the fluorescence signal over time and converted to product concentration using calibration curves, assuming equal fluorescence intensities for substrate and product, as […]
Ft = time-dependent signal resulting from product formation (in µM, calculated from AU values), F0 = Y-intercept = background signal at reaction initiation (in µM, calculated from AU values), vi = initial product formation velocity (in µM/min), vs = final/steady-state product formation velocity (in µM/min), t = incubation time after enzyme addition (in min), kobs = observed rate of time-dependent inhibition from initial vi to final vs (in min-1). […]

[4] = molecular target: T2, HEK293T cells overexpressing a NanoLuc–SIRT2 fusion protein (Homo sapiens, UniProt Q8IXJ6); assay: CE-ESI-MS analysis of adducts formed in cellulo; type: cell-based; conditions: 20 µM, 3 h
T2 construct: transfected HEK293T cells expressing the NanoLuc-tagged SIRT250-356 fusion protein were used instead of transient; expressed in transfected cells; host or cells: HEK293T (stably transfected)
T2 sequence (Q8IXJ6 50-356 limits assumed): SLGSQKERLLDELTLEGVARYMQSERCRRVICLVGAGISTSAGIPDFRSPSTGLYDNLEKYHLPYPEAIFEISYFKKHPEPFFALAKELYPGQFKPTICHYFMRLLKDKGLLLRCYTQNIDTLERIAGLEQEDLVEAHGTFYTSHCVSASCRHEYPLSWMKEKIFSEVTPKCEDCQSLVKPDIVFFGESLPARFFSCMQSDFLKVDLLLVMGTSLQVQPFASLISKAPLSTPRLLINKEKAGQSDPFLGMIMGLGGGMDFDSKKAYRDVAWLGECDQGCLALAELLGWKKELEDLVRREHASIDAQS

SMILES: COCCn1cc(COc2cccc(Cc3cnc(NC(=O)CSc4nc(C)cc(C)n4)s3)c2)nn1 [Compound 1, reference compound]
α-tubulin hyperacetylation [1]: pronounced α‐tubulin hyperacetylation

SIRT2 enzymatic activity after jump dilution ([2]; preincubation of SIRT2 with compound and NAD+ (30 min), 1:100 dilution to 4 nM): 13%
SIRT2 enzymatic activity after jump dilution ([2]; without NAD+ preincubation, 1:100 dilution): 72%
pKi [3]: 4.61
SMILES: CCCCCCCCCCCCc1cn(CCCC[C@H](NC(=O)[C@H](CCCCN)NC(=O)[C@@H]2CCCN2C(=O)[C@H](CC(C)C)NC(=O)[C@H](C)NC(=O)[C@H](CCC(=O)O)NC(C)=O)C(=O)N[C@H](C(=O)NCC(=O)NCC(N)=O)[C@@H](C)O)nn1 [Compound 6]

ADPR adduct formation in cells by CE-ESI-MS/MS [4]: confirmed formation of 7–ADPR in cellulo
SMILES: Cc1cc(C)nc(SCC(=O)Nc2ncc(Cc3cccc(OCc4c[nH]nn4)c3)s2)n1 [Compound 7]
